Test results from patent publication US4414332A (Boehringer Mannheim GmbH, priority 1980, dated 1983).
“Also recorded” adds a separate entry of the source. Like-named read-outs stand apart in the source and are kept apart here.

Target: T1, endoproteinase-Lys-C (Lysobacter enzymogenes, UniProt Q7M135)
T1 construct: consists of a chain of molecular weight 35000 to 38000 Dalton; made in house
Test: Inhibition of endoproteinase-Lys-C by protease inhibitors
Assay type: biochemical, Lysobacter enzymogenes ssp. enzymogenes

T1 sequence (Q7M135 whole entry): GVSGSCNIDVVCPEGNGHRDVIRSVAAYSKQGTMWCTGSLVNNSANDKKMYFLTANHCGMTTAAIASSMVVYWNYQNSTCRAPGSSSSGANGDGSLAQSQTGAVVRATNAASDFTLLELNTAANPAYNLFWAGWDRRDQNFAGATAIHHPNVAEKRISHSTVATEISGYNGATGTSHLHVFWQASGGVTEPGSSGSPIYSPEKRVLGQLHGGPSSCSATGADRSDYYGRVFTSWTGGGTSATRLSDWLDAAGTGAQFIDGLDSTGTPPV

aprotinin
inhibition of the enzyme: inhibited
inhibition of the enzyme (listed as Aprotonin): inhibits the enzyme completely

O=C(O)CN(CCN(CC(=O)O)CC(=O)O)CC(=O)O [ethylenediaminetetraacetic acid]
inhibition of the enzyme: not inhibited
inhibition of the enzyme (EDTA up to 10^-2 M): do not inhibit

α1 -antitrypsin
inhibition of the enzyme: not inhibited; also recorded: do not inhibit

N=C(N)c1ccccc1 [Benzamidine]
inhibition at 2500 µM (at 2.5 mM, read-out: inhibition of the enzyme): ~50%

α2 -macroglobulin
inhibition of the enzyme: not inhibited
inhibition of the enzyme (listed as alpha2 microglobulin): do not inhibit
